# Laboratory results taken from patent US4241184A, “Secondary alcohol dehydrogenase enzyme and use thereof” (priority 1979, dated 1980).
# Entries after “also recorded” stand apart in the source; their conditions may differ. Where two headings read alike, the source gives them in different places.
# Columns and labels:
# [1] = Oxidation of 2-butanol to 2-butanone by cell-free soluble extracts of C1-utilizing microbes; type: biochemical
# Method: The clear supernatant contained the SADH activity. […] The reaction was started by the addition of substrate.
# Catalytic activity was also assayed by fluorescence spectrophotometry.
# [2] = tested on: secondary alcohol dehydrogenase; experiment: Purified yeast secondary alcohol dehydrogenase: substrates, electron acceptors, inhibitors, stoichiometry; type: biochemical, Pichia sp. NRRL Y-11,328
# Method: Large scale cultures of Pichia sp. NRRL Y-11,328 were grown with aeration at 30° C. in a 14-liter New Brunswick f fermentor in a mineral salt medium containing methanol (0.4%, v/v) as the sole carbon source. The cells (200 g., wet weight) were suspended in […] sodium phosphate buffer, pH 7.0, containing 1 mM dithiothreitol (buffer A), and crude extracts were prepared as described previously. To the crude extracts, 18 ml. of protamine sulfate solution [2% solution in 0.1 M tris (hydroxymethyl) aminomethane (tris) base] was added dropwise with continuous stirring. After standing for 30 min., the extracts were centrifuged at 20,000×g. for 60 min. The supernatant solution was fractionated with solid ammonium sulfate. Extracts were brought to 50% of saturation with respect to ammonium sulfate by addition of 313 g. of the salt per liter of extract. Precipitated proteins was removed by centrifugation, and 137 g. of ammonium sulfate was added per liter of the supernatant liquid to bring it to 70% of saturation. Material precipitating between 50 and 70% of saturation was collected by centrifugation and dissolved in buffer A. This preparation was dialyzed overnight against buffer A, and the dialyzed material was applied to a DEAE-cellulose column (5×40 cm) that had been equilibrated with buffer A. The sample was washed with 200 ml. of buffer A and eluted with 2 liters of buffer A that contained NaCl in a linear gradient running from a concentration of 0 to 0.5 M. Fractions of 15 ml. were collected. Fractions containing secondary alcohol dehydrogenase activity were pooled and were termed DEAE-cellulose eluate. The DEAE-cellulose eluate was concentrated by ammonium sulfate fractionation.
# Secondary alcohol dehydrogenase activity was measured spectrophotometrically at 340 nm with a NAD^+ as an electron acceptor. The reaction mixture, in a total 3.0 ml., contained 50 mM phosphate buffer, pH 8.0, 5μ moles NAD^+, crude extracts, and subtrate. The reactions were started by addition of 100 μl of 0.1 M substrate and the rate of NAD^+ reduction was measured. Protein concentration was determined by the method of Lowry et al.
# The substrate specificity of the purified secondary alcohol dehydrogenase was examined spectrophotometrically.
# [3] = tested on: secondary alcohol dehydrogenase (SADH); experiment: Purified secondary alcohol dehydrogenase activity (formation of reduced NAD); type: biochemical, Pseudomonas sp. ATCC 21439
# Method: Secondary alcohol dehydrogenase (SADH) from an obligate methanol utilizer, Pseudomonas sp. ATCC 21439 was purified as follows. […] 0.05 M sodium phosphate buffer, pH 7.0 with 0.5 mM dithiothretol (buffer A) and were disrupted sonically (5×1 min.). The crude extract was separated by centrifugation. The crude extract was heat-treated at 50° C. in a water bath for 10 minutes. The resulting precipitate was removed by centrifugation. To the supernatant solution, 25 ml of protamine sulfate solution (2% solution in 0.1 M Tris base) was added dropwise with continuous stirring. After standing for 30 minutes, the extract was centrifuged. The supernatant solution was fractionated with solid ammonium sulfate. The material precipitating between 30 and 60% saturation was collected and was dialized overnight against buffer A. The The dialized material was applied to a DEAE-cellulose column (3 cm by 35 cm) that had been equilibrated with buffer A. The secondary alcohol dehydrogenase activity was eluted in the void volume. This DEAE-cellulose eluate was concentrated by ammonium sulfate fractionation. Material precipitating between 30 and 50% ammonium sulfate saturation was collected by centrifugation and dialyzed overnight against A. This fraction was further washed and filtered through an Amicon unit with XM 50 membrane. The concentrated fraction (6 ml) inside the Amicon unit was applied to an Affi-Gel Blue column (0.8 cm×18 cm) which had been equilibrated with buffer A for affinity chromatography. The column was washed overnight with buffer A (0.18 ml./min.) and then was eluted with buffer A containing 5 mM NAD. Each 1 ml. fraction was collected.
# The purified secondary alcohol dehydrogenase enzyme (SADH) may be used directly for converting C3 -C6 secondary alcohols to the corresponding methyl ketones by the procedures described above; however, a source of NAD^+ must be added to the reaction medium. One can determine the NAD-linked secondary alcohol dehydrogenase activity with a fluorescence spectrophotometer (Perkin Elmer, Model MPF 44A) by following the formation of reduced NAD (Ex 340 nm, Em 460 nm). The assay system (3 ml.) will typically contain: sodium phosphate buffer pH 7.0, 150 μmol; NAD 1.0 μmol; a given amount of enzyme preparation; and 20 μmol secondary alcohol. The reaction is started by the addition of secondary alcohol. One unit of SADH enzyme activity represents the reduction of one nmole NAD per minute.
# The effect of metal-chelating agents and thioreagents on the activity of the purified SADH enzyme were studied. […] The possibility of ethanol or n-propanol as an inhibitor was studied.
# [4] = tested on: P(40) particulate fraction of Methylosinus sp. (CRL-15, NRRL B-11,202); experiment: Effect of inhibitors on propylene epoxidation and methane hydroxylation by P(40) fraction; type: biochemical; conditions: inhibitor 10^-3 M
# Method: The oxidation of methane and propylene by particulate [(P)40 and(P)80] fractions and soluble [S(80)] fraction was measured at 30° C. by estimating the production of methanol and propylene oxide, respectively. The reaction mixtures contained in 1.0 ml: 150 mM potassium phosphate buffer, pH 7.0 containing 5 mM MgCl2, 0.6 ml; 10 μmoles NADH, and cellular fraction.
# Reaction mixtures were contained in 10 ml vials at 4° C. Vials were sealed with rubber caps. The gaseous phase in the vials was removed using vacuum and then was replaced with a gas mixture of methane or propylene and oxygen at a 1:1, v/v ratio. Oxidation of other gaseous n-alkanes and n-alkenes was examined as described above. For liquid substrates, 10 μl of substrate was used directly. Vials were then incubated at 30° C. on a rotary shaker at 200 RPM.
# It has been reported that the oxidation of methane by cell suspensions of methane-utilizing bacteria was inhibited by various metal-binding or metal-chelating agents (Patel et al., J. Bacteriol. 126: 1017-1019 (1976)). […] (CRL-15, NRRL B-11,202) was examined.
# [5] = tested on: cell-free particulate fractions derived from the methylotrophic microorganisms; experiment: Conversion of C3-C6 n-alkanes to sec. alcohols by cell-free particulate fractions: inhibitors and electron donors; type: biochemical
# Text: The conditions for preparing the cell suspensions or the cell-free particulate fractions from methane-grown methylotroph microorganisms is the same as described above. […] Tables XXV and XXVI show the conversion of C3 -C6 n-alkanes to the corresponding secondary alcohols using cell suspensions and cell-free particulate fractions, respectively, of methane-grown methylotroph microorganisms.
# [6] = tested on: methanol-grown Methylococcus capsulatus CRL M1 (NRRL B-11,219); experiment: Effect of metal-chelating agents and other inhibitors on production of 2-butanone by cell suspensions; type: cell-based
# [7] = tested on: P(40) particulate fraction of Methylosinus sp. (CRL-15, NRRL B-11,202); experiment: Oxidation of n-alkenes and n-alkanes by P(40) particulate fraction; type: biochemical
# [8] = tested on: P(40) particulate fraction of Methylosinus sp. (CRL-15, NRRL B-11,202); experiment: Stoichiometry of propylene epoxidation and methane hydroxylation by P(40) fraction; type: biochemical; conditions: 5.0 μmoles substrate
# Method: The particulate P(40) fraction of Methylosinus sp. (CRL-15, NRRL B-11,202) was used to determine the stoichiometry of hydroxylation and epoxidation reactions. The stoichiometry of methane or propylene-dependant NADH oxidation, oxygen consumption and product formation was approximately 1:1:1 Table XIV. This is consistent with methane or propylene oxygenation being catalyzed by a mono-oxygenase.
# ^a Under identical condition of reaction, the estimation of NADH
# oxidized was carried out spectrophotometrically, the estimation of oxygen
# consumed was measured polarographically, and estimation of product formed
# was carried out by gas chromatography.
# [9] = tested on: Methylococcus capsulatus (CRL Ml, NRRL B-11,219); experiment: Effect of inhibitors on epoxidation of propylene and hydroxylation of methane, cell-containing enzyme preparation; type: cell-based; conditions: for inhibition at 1000 µM: Methylococcus capsulatus, NRRLB11, 1 h
# [10] = tested on: cell suspensions of C1 -utilizers; experiment: Optimal conditions and inhibition of 2-butanone production from 2-butanol by cell suspensions; type: cell-based
# Text: The following summarizes tests conducted on the optimal conditions for the production of methyl ketones from C3 -C6 sec. alcohols.
# [11] = tested on: Methylosinus trichosporium OB3b (NRRL B-11,196); experiment: Effect of inhibitors on epoxidation of propylene and hydroxylation of methane, cell-containing enzyme preparation; type: cell-based; conditions: NRRLB11, 1 h
# [12] = tested on: Methylobacterium organophilum (CRL 26, NRRL B-11,222); experiment: as above; type: cell-based; conditions: NRRLB11, 1 h
# [13] = NRRLB11, read-out: Inhibition (%) of production of 2-butanone
# [14] = purified SADH, each inhibitor 1 mM, measured spectrofluorometrically
# [15] = read-out: % Inhibition, Epoxidation
# [16] = read-out: % Inhibition, Hydroxylation
# [17] = NRRLB11, read-out: Inhibition (%) of production of 2-butanone, 1 mM
smiles,measurement,setting,value
C[n+]1c2ccccc2nc2ccccc21 [phenazine methosulfate],cofactor for oxidation of secondary alcohols in the cell-free system,[1],not effective
same,electron acceptor for the purified enzyme,[2],could not act as electron carrier
NC(=O)C1=CN([C@@H]2O[C@H](COP(=O)(O)OP(=O)(O)OC[C@H]3O[C@@H](n4cnc5c(N)ncnc54)[C@H](OP(=O)(O)O)[C@@H]3O)[C@@H](O)[C@H]2O)C=CC1 [NAD(P)H],cofactor for oxidation of secondary alcohols in the cell-free system,[1],not effective
"NC(=O)c1ccc[n+]([C@@H]2O[C@H](COP(=O)([O-])OP(=O)(O)OC[C@H]3O[C@@H](n4cnc5c(N)ncnc54)[C@H](O)[C@@H]3O)[C@@H](O)[C@H]2O)c1 [NAD, Nicotinamide adenine dinucleotide]",cofactor for oxidation of secondary alcohols in the cell-free system,[1],requirement; also recorded: required
same,Km,"[3]; Line-Weaver-Burk plot, read-out: Michaelis constants (Km) of SADH",11 µM
same,Km,"[3]; pure SADH, read-out: Km values",11 µM
same,electron acceptor for the purified enzyme,[2],required
NNC(N)=S [Thiosemicarbazide],"% Inhibition, Methane-Hydroxylating Activity",[4],100%
same,"% Inhibition, Propylene-Epoxidizing Activity",[4],97%
same,inhibition of the conversion of the n-alkanes to the sec. alcohols,[5],inhibited
O=C1C(Cl)=CC(=Nc2ccc(O)cc2)C=C1Cl [dichlorophenol indophenol],cofactor for oxidation of secondary alcohols in the cell-free system,[1],not effective
same,electron acceptor for the purified enzyme,[2],could not act as electron carrier
N[C@@H](CCC(=O)N[C@@H](CS)C(=O)NCC(=O)O)C(=O)O [glutathione],cofactor for oxidation of secondary alcohols in the cell-free system,[1],not effective
same,inhibition of secondary alcohol dehydrogenase activity,[2],strongly inhibited
O=C(O)CN(CCN(CC(=O)O)CC(=O)O)CC(=O)O [EDTA],inhibition at 1000 µM,[6]; [13],70%
same,% inhibition of SADH activity,[3],63%
NC(=O)c1ccc[n+]([C@@H]2O[C@H](COP(=O)(O)OP(=O)(O)OC[C@H]3O[C@@H](n4cnc5c(N)ncnc54)[C@H](OP(=O)(O)O)[C@@H]3O)[C@@H](O)[C@H]2O)c1 [NADP],cofactor for oxidation of secondary alcohols in the cell-free system,[1],not effective
same,electron acceptor for the purified enzyme,[2],could not act as electron carrier
[N-]=[N+]=[N-] [Sodium azide],inhibition at 1000 µM,[6]; [13],10%
same,% inhibition of SADH activity,[3]; [14],10%
Oc1cccc2cccnc12 [8-Hydroxyquinoline],"% Inhibition, Methane-Hydroxylating Activity",[4],80%
same,"% Inhibition, Propylene-Epoxidizing Activity",[4],75%
same,inhibition of the conversion of the n-alkanes to the sec. alcohols,[5],inhibited
C [Methane],Propylene Oxide Produced,"[7]; substrate competition, gas phase as labelled",0 μmoles/hr/mg. protein
same,Rate of Product Formation,"[7]; substrate oxidized to its epoxide or alcohol, 30° C.",4.8 μ moles/hr/mg of protein
same,NADH Oxidized,[8],4.8 µmol
same,O2 Consumed,[8],4.6 µmol
same,Product formed,[8],4.2 µmol
same,inhibition of epoxidation of propylene to propylene oxide in the presence of methane,[9]; cell suspension of methane-grown strain,50%
"Cc1cc2nc3c(=O)[nH]c(=O)nc-3n(C[C@H](O)[C@H](O)[C@H](O)COP(=O)(O)OP(=O)(O)OC[C@H]3O[C@@H](n4cnc5c(N)ncnc54)[C@H](O)[C@@H]3O)c2cc1C [FAD, flavin adenine dinucleotide]",cofactor for oxidation of secondary alcohols in the cell-free system,[1],not effective
same,electron acceptor for the purified enzyme,[2],could not act as electron carrier
CCC(C)=O [2-butanone],inhibition of SADH activity by the product,[3],inhibited
same,product inhibition of 2-butanone production,[10]; 8 μmoles 2-butanone added to viable cell suspensions,no product inhibition
NC(N)=S [Thiourea],"% Inhibition, Methane-Hydroxylating Activity",[4],98%
same,"% Inhibition, Propylene-Epoxidizing Activity",[4],98%
same,inhibition at 1000 µM,[11]; [15],100%
same,inhibition at 1000 µM,[11]; [16],100%
same,inhibition at 1000 µM,[9]; [15],100%
same,inhibition at 1000 µM,[9]; [16],100%
same,inhibition at 1000 µM,[12]; [15],100%
same,inhibition at 1000 µM,[12]; [16],100%
same,inhibition at 1000 µM,[6]; [17],0%
same,inhibition of the conversion of the n-alkanes to the sec. alcohols,[5],inhibited
same,inhibition of production of 2-butanone from 2-butanol by cell suspensions of the strains tested,[10],not inhibited
"c1ccc(-c2ccccn2)nc1 [α,α -Bipyridyl, α,α-bipyridyl]","% Inhibition, Methane-Hydroxylating Activity",[4],99%
same,"% Inhibition, Propylene-Epoxidizing Activity",[4],98%
same,inhibition at 1000 µM,[11]; [15],100%
same,inhibition at 1000 µM,[11]; [16],90%
same,inhibition at 1000 µM,[9]; [15],100%
same,inhibition at 1000 µM,[9]; [16],100%
same,inhibition at 1000 µM,[12]; [15],100%
same,inhibition at 1000 µM,[12]; [16],100%
same,inhibition at 1000 µM,[6]; [17],75%
same,% inhibition of SADH activity,[3]; [14],70%
same,inhibition of the conversion of the n-alkanes to the sec. alcohols,[5],inhibited
same,inhibition of production of 2-butanone from 2-butanol by cell suspensions of the strains tested,[10],inhibited
